Measurements from patent publication US11850250B2, “Use of homoharringtonine in preparation of betacoronavirus replication inhibitor in human” (priority 2020, dated 2023).

Assays:
SARS-CoV-2 = test: microbe, parasite or virus in culture; format: cell-based; conditions: Severe acute respiratory syndrome coronavirus 2, Vero C1008, read-out: Inhibition rate (%)
60 human cell lines = test: Cytotoxicity of HHT in 60 human cell lines; conditions: 1 μM (or lower) for 48 hours; cell lines other than the few that died obviously, of 60 human cell lines

COC(=O)C[C@](O)(CCCC(C)(C)O)C(=O)O[C@@H]1C(OC)=C[C@]23CCCN2CCc2cc4c(cc2[C@H]13)OCO4 [HHT, Homoharringtonine]
inhibition at 0.186 µM (SARS-CoV-2; drug concentration 0.186 μM): 31.7 ± 7.64%
inhibition at 0.375 µM (SARS-CoV-2; drug concentration 0.375 μM): 60 ± 8.66%
inhibition at 0.75 µM (SARS-CoV-2; drug concentration 0.75 μM): 86.7 ± 2.89%
inhibition at 1.5 µM (SARS-CoV-2; drug concentration 1.50 μM): 93.3 ± 2.89%
cell viability (60 human cell lines): about 100%
